Experimental data as given in patent EP0415219A1, “ANF-Antagonist” (F. HOFFMANN-LA ROCHE AG, priority 1989, dated 1991).
Where a SMILES comes first, the peptide text is derived from it. Bridges are numbered along the chain shown (N, C = ends).

Assays:
[1] = molecular target: ANF Rezeptor (Membranpräparation von Rindernebennieren); experiment: Binding test: displacement of radiolabelled ANF from its receptor (membrane preparation of bovine adrenal glands); design: species or system Rind; conditions: inhibition of ¹²⁵I-ANF (18,2 pM) binding, 24 h at 4°C; read-out: IC₅₀
Method: In einem Bindungstest nach Bürgisser et al. [Biochem. Biophys. Res. Comm. 133, 1201 (1985)] wurde die Verdrängung von radioaktiv-markiertem ANF von dessen Rezeptor durch den ANF-Antagonisten gemessen. Als Rezeptorpräparation wurde eine Membranpräparation von Rindernebennieren verwendet. Zu 100 µl dieser Präparation in 50 mM Tris/HCl, 500 mM MgCl₂, 1 mM EDTA. 0,5% Rinderserumalbumin und 1 mM o-Phenanthrolin, pH 7,6, wurden ¹²⁵I-ANF (20'000 cpm. 18,2 pM) in 145 µl dieses Puffers und der Ligand in 5 µl Dimethylsulfoxid gegeben. Diese Mischung wurde 24 Stunden bei 4°C inkubiert und gebundenes von freiem ANF durch schnelle Filtration über Whatman GF/C Glasfaserfilter abgetrennt. Nach dreimaligem Waschen der Filter mit obigem Puffer (3 x 4 ml) wurden die Filter zerschnitten und deren Radioaktivität im Gamma-Zähler gemessen. Die Inhibition der Bindung wurde quantitativ mit der IC₅₀ erfasst, worunter diejenige Konzentration an entsprechendem Liganden zu verstehen ist, bei der die Bindung von ¹²⁵I-ANF halbmaximal gehemmt wird. Tabelle

[2] = tested on: spontanhypertensive Ratten (SHR); experiment: In vivo blood pressure in conscious SHR under ANF infusion; conditions: bolus 1 mg/kg after ANF infusion 2.5 µg/kg/min
Method: (§1) Für die in vivo Versuche wurden 20 Wochen alte spontanhypertensive Ratten (SHR) oder normotensive pathogen-freie (SPF) Ratten verwendet. In wache SHR wurde 2.5 µg/kg/min ANF infundiert, was den Blutdruck um 45 mm Hg senkte. Eine anschliessende Bolusgabe von 1 mg/kg ANF-Antagonist erhöhte den Blutduck wiederum auf den Ausgangswert von 220 mm Hg. Anästhesierten SPF-Ratten ohne zentrale Reflexe ("pithed rats") wurde Angiotensin II (0,15 µg/kg/min) infundiert, um den Blutdruck auf 100-110 mm Hg anzuheben. Dann wurde ein Bolus von 10 µg/kg ANF gegeben. was den Blutdruck um 20 mm Hg senkte. […] Diese Versuche zeigen, dass der Blutdruckanstieg unter dem ANF-Antagonisten nicht auf eine Aktivierung von symphatischen Reflexen, sondern auf die Wirkung eines ANF-Antagonisten zurückzuführen ist.

[3] = tested on: SPF-Ratten ohne zentrale Reflexe ("pithed rats"); experiment: In vivo blood pressure in anaesthetised pithed SPF rats under angiotensin II infusion; conditions: Angiotensin II 0,15 µg/kg/min, 1 mg/kg i.v. after bolus of 10 µg/kg ANF
Method: as §1

Compound | IC50 [1] [nM] | Blutdruck nach Bolusgabe (erhöht auf den Ausgangswert) [2] [mm Hg] | Blutdruck nach intravenöser Gabe [3]
CC[C@H](C)[C@@H]1NC(=O)[C@H](Cc2ccccc2)NC(=O)CNC(=O)C[C@@H](C(=O)N[C@H](C(=O)N[C@@H](Cc2ccccc2)C(=O)NCC(=O)N[C@@H](Cc2c[nH]cn2)C(=O)N[C@@H](Cc2ccc(O)cc2)C(=O)N[C@@H](CO)C(=O)NCC(=O)N[C@@H](CC(=O)O)C(=O)N[C@@H](Cc2ccccc2)C(=O)O)[C@@H](C)CC)NC(=O)[C@H](CC(N)=O)NC(=O)CNC(=O)[C@H](Cc2c[nH]c3ccccc23)NC(=O)CNC1=O [ANF-Antagonist] (GFIGWGNDIFGHYSGDF-OH; lactam N-8; C-terminus assumed) | 860 | 220 | erhöhte den Blutdruck wiederum auf den Ausgangswert
CC[C@H](C)[C@@H]1NC(=O)[C@H](Cc2ccccc2)NC(=O)CNC(=O)C[C@@H](C(=O)N[C@H](C(=O)N[C@@H](Cc2ccccc2)C(=O)NCC(=O)N[C@@H](Cc2c[nH]cn2)C(=O)N[C@@H](Cc2ccc(O)cc2)C(=O)N[C@@H](CO)C(=O)NCC(=O)N[C@@H](CC(=O)OC)C(=O)N[C@@H](Cc2ccccc2)C(=O)OC)[C@@H](C)CC)NC(=O)[C@H](CC(N)=O)NC(=O)CNC(=O)[C@H](Cc2c[nH]c3ccccc23)NC(=O)CNC1=O [Dimethylester] (GFIGWGNDIFGHYSGD(OMe)F-OMe; lactam N-8) | 2500 |  | 
